The results in this text go back to US8680290B2, “Isoxazoline derivatives and their use as herbicides” (Syngenta Limited, priority 2004, dated 2014).

The subject of series [1] is Monocotyledonous and dicotyledonous test plants. The series is described as follows: Example B1 herbicidal action, application post-emergence (Table B1a). The settings on record: 250 g/ha, evaluated after 3 weeks, scale 0-10. The format is in vivo. In short, it runs like this:
(§1)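 Compounds sprayed as aqueous solution from acetone/Emulsogen EL/NMP/dipropylene glycol monomethyl ether/X-77 formulation onto soil right after sowing (pre-emergence) or onto 8–9-day plants (post-emergence); greenhouse-grown. Damage scored 0 (none) to 10 (total) after 4 weeks pre- or 3 weeks post-emergence.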

Series [2] shares this test system. Put plainly: Example B1 herbicidal action, application pre-emergence (Table B1b). The format is in vivo. Particulars: 250 g/ha, evaluated after 4 weeks. An outline of the steps:
as §1

Series [3] has the same test system. Put plainly: Example B2 herbicidal action, application pre-emergence, 96-cell seed trays (Table B2b). In kind it is in vivo. The settings on record: 1000 g/ha. How it is done:
Monocotyledonous and dicotyledonous test plants were sown in sterilised standard soil in seed trays each having 96 cells. After one day (pre-emergence) or after 8 to 9 days cultivation (post-emergence) under controlled conditions in a climatic chamber (cultivation at 17/23° C.; 13 hours light; 50-60% humidity; after application at 19/24° C.), the plants were treated with an aqueous spray solution of 1000 mg/l of the active ingredient used (rate of application: […]; incl. 10% DMSO as solvent). The plants were grown on in the climatic chamber until the test was evaluated (10 total damage to plant, 0=no damage to plant) after 9 or 13 days.

The term melting point denotes the temperature, or range, at which the solid turns liquid.

Structures are written as SMILES.

Turning to `CC1(C)CC(S(=O)(=O)C(Br)c2c(F)cccc2F)=NO1` (centres unmarked) [Compound No. 1.19, 3-[bromo-(2,6-difluorophenyl)-methanesulfonyl]-5,5-dimethyl-4,5-dihydroisoxazole], the melting point turned out to be 135 °C. Also, in series [1], the “herbicidal damage rating, Abutilon” value worked out at 6; the “herbicidal damage rating, Amaranthus” value is 5; the “herbicidal damage rating, Digitaria” value came to 6; the “herbicidal damage rating, Panicum” value is on record as 5. In series [1], the “herbicidal damage rating, Setaria” value worked out at 5 and the “herbicidal damage rating, Sida” value is 2. For the same molecule, in series [2], the “herbicidal action (damage rating 0-10), Amaranthus” value (“herbicidal action … Amaranthus” below) worked out at 10; the “herbicidal action (damage rating 0-10), Digitaria” value (“herbicidal action … Digitaria” below) was determined as 10; the “herbicidal action (damage rating 0-10), Panicum” value (“herbicidal action … Panicum” below) was determined as 10; the “herbicidal action (damage rating 0-10), Setaria” value (shortened to “herbicidal action … Setaria”) is 10. Moreover, the “herbicidal action (damage rating 0-10), Sida” value (shortened to “herbicidal action … Sida”) in series [2] stood at 6. Besides, in series [3], the “herbicidal action (damage rating 0-10), Agrostis” value (“herbicidal action … Agrostis” below) stood at 10; the “herbicidal action … Digitaria” value is on record as 9; the “herbicidal action (damage rating 0-10), Poa” value (shortened to “herbicidal action … Poa”) is 10; the “herbicidal action … Setaria” value is 9.
In turn, `CC1(C)CC(S(=O)(=O)C(F)(Cl)c2c(F)cccc2F)=NO1` (centres unmarked) [Compound No. 1.21, 3-[chloro-(2,6-difluoro-phenyl)-fluoro-methanesulfonyl]-5,5-dimethyl-4,5-dihydroisoxazole] displayed a melting point of 129 °C. For the same molecule, in series [1], the “herbicidal damage rating, Abutilon” value is listed as 7; the “herbicidal damage rating, Digitaria” value is listed as 7; the “herbicidal damage rating, Panicum” value was 9; the “herbicidal damage rating, Setaria” value is 7. Moreover, the “herbicidal damage rating, Sida” value in series [1] stood at 5. For the same molecule, in series [2], the “herbicidal action … Amaranthus” value is listed as 10; the “herbicidal action … Digitaria” value turned out to be 10; the “herbicidal action … Panicum” value is reported as 10; the “herbicidal action … Setaria” value came out at 10. In series [2], the “herbicidal action … Sida” value was 9. Also, in series [3], the “herbicidal action … Agrostis” value is 10; the “herbicidal action … Digitaria” value is reported as 10; the “herbicidal action … Poa” value came to 10; the “herbicidal action … Setaria” value was determined as 9.
On to `CC1(C)CC(S(=O)(=O)C(C(N)=O)c2c(F)cccc2F)=NO1` (centres unmarked) [Compound No. 1.23, 2-(2,6-difluoro-phenyl)-2-(5,5-dimethyl-4,5-dihydroisoxazole-3-sulfonyl)-acetamide], for which the melting point was determined as 175 °C. Further, in series [2], the “herbicidal action … Amaranthus” value stood at 7; the “herbicidal action … Digitaria” value was determined as 4; the “herbicidal action … Panicum” value worked out at 10; the “herbicidal action … Setaria” value came out at 7. Besides, the “herbicidal action … Sida” value in series [2] is 0. For the same molecule, in series [3], the “herbicidal action … Agrostis” value is 10; the “herbicidal action … Digitaria” value is 8; the “herbicidal action … Poa” value came to 10; the “herbicidal action … Setaria” value worked out at 8.
Molecule `Cc1cccc(C(Cl)S(=O)(=O)C2=NOC(C)(C)C2)c1` (centres unmarked) [Compound No. 1.30, 3-[chloro-m-tolyl-methanesulfonyl]-5,5-dimethyl-4,5-dihydroisoxazole] had a melting point of 102 °C. Further, in series [2], the “herbicidal action … Amaranthus” value turned out to be 0; the “herbicidal action … Digitaria” value is 9; the “herbicidal action … Panicum” value is reported as 10; the “herbicidal action … Setaria” value is listed as 9. Besides, in series [2], the “herbicidal action … Sida” value is 2. In series [3], the “herbicidal action … Agrostis” value came to 10; the “herbicidal action … Digitaria” value is 10; the “herbicidal action … Poa” value was 10; the “herbicidal action … Setaria” value is given as 10.
`CC1(C)CC(S(=O)(=O)C(C(=O)NC2CC2)c2c(F)cccc2F)=NO1` (centres unmarked) [Compound No. 1.35, N-cyclopropyl-2-(2,6-difluoro-phenyl)-2-(5,5-dimethyl-4,5-dihydroisoxazole-3-sulfonyl)-acetamide] gave a melting point of 150 °C.
In the case of `C=CC1CC1(c1c(F)cccc1F)S(=O)(=O)C1=NOC(C)(C)C1` (centres unmarked) [Compound No. 1.46, 3-[1-(2,6-difluoro-phenyl)-2-vinylcylopropane-sulfonyl]-5,5-dimethyl-4,5-dihydroisoxazole], the melting point was determined as 117 °C. In addition, in series [2], the “herbicidal action … Amaranthus” value turned out to be 3; the “herbicidal action … Digitaria” value was 6; the “herbicidal action … Panicum” value is 5; the “herbicidal action … Setaria” value is recorded as 3. The “herbicidal action … Sida” value in series [2] is 0.
In turn, `COCC(c1c(F)cccc1F)S(=O)(=O)C1=NOC(C)(C)C1` (centres unmarked) [Compound No. 1.51, 3-[1-(2,6-difluoro-phenyl)-2-methoxy-ethanesulfonyl]-5,5-dimethyl-4,5-dihydroisoxazole] came in with a melting point of 102 °C. Also, in series [2], the “herbicidal action … Amaranthus” value was found to be 8; the “herbicidal action … Digitaria” value is given as 9; the “herbicidal action … Panicum” value worked out at 9; the “herbicidal action … Setaria” value came to 8. Besides, the “herbicidal action … Sida” value in series [2] was 0.
In turn, `CC1(C)CC(S(=O)(=O)C(Cl)(Br)c2c(F)cccc2F)=NO1` (centres unmarked) [Compound No. 1.53, 3-[bromo-chloro-(2,6-difluorophenyl)-methanesulfonyl]-5,5-dimethyl-4,5-dihydroisoxazole] showed a melting point of 119 °C. In addition, in series [1], the “herbicidal damage rating, Abutilon” value came to 5; the “herbicidal damage rating, Amaranthus” value stood at 7; the “herbicidal damage rating, Digitaria” value worked out at 7; the “herbicidal damage rating, Panicum” value was determined as 7. Also, in series [1], the “herbicidal damage rating, Setaria” value turned out to be 7 and the “herbicidal damage rating, Sida” value worked out at 2. Further, in series [2], the “herbicidal action … Amaranthus” value was 9; the “herbicidal action … Digitaria” value was 10; the “herbicidal action … Panicum” value is on record as 10; the “herbicidal action … Setaria” value came to 10. In addition, in series [2], the “herbicidal action … Sida” value amounted to 5.
Molecule `CC1(C)CC(S(=O)(=O)C(C)(F)c2ccccc2)=NO1` (centres unmarked) [Compound No. 1.138, 3-(1-fluoro-1-phenyl-ethanesulfonyl)-5,5-dimethyl-4,5-dihydroisoxazole] showed a melting point of 91 to 93 °C.
The molecule `Cn1nc(C(F)(F)F)c(C(F)S(=O)(=O)C2=NOC(C)(C)C2)c1OC1COC1` (centres unmarked) [Compound No. 2.27, 3-{fluoro-[1-methyl-5-(oxetan-3-yloxy)-3-trifluoromethyl-1H-pyrazol-4-yl]-methanesulfonyl}-5,5-dimethyl-4,5-dihydroisoxazole] had a melting point of 105 to 107 °C.
The same measure, in the same setting: the figure for `Cc1noc(C2CC2)c1C(Cl)(Cl)S(=O)(=O)C1=NOC(C)(C)C1` [Compound No. 3.06, 5-cyclopropyl-4-[dichloro-(5,5-dimethyl-4,5-dihydroisoxazole-3-sulfonyl)methyl]-3-methyl-isoxazole] is 72 °C.
`Cc1onc(C2CC2)c1C(Cl)S(=O)(=O)C1=NOC(C)(C)C1` (centres unmarked) [Compound No. 3.07, 4-[chloro-(5,5-dimethyl-4,5-dihydroisoxazole-3-sulfonyl)methyl]-3-cyclopropyl-5-methyl-isoxazole] yielded a melting point of 159 °C. Besides, in series [2], the “herbicidal action … Amaranthus” value came to 4; the “herbicidal action … Digitaria” value is 9; the “herbicidal action … Setaria” value came out at 8; the “herbicidal action … Sida” value was 2.
Turning to `Cn1cc(C(F)(F)F)c(C(F)S(=O)(=O)C2=NOC(C)(C)C2)n1` (centres unmarked) [Compound No. 4.04, 3-[fluoro-(1-methyl-4-trifluoromethyl-1H-pyrazol-3-yl)-methanesulfonyl]-5,5-dimethyl-4,5-dihydroisoxazole], the melting point fell in the range of 117 to 118 °C.
Take `Cn1cc(C(F)(F)F)c(C(F)(F)S(=O)(=O)C2=NOC(C)(C)C2)n1` [Compound No. 4.05, 3-[difluoro-(1-methyl-4-trifluoromethyl-1H-pyrazol-3-yl)-methanesulfonyl]-5,5-dimethyl-4,5-dihydro-isoxazole]: the melting point was 101 to 103 °C.
As for `COc1cc(C(Cl)(Cl)S(=O)(=O)C2=NOC(C)(C)C2)on1` [Compound No. 5.02, 5-[dichloro-(5,5-dimethyl-4,5-dihydroisoxazole-3-sulfonyl)-methyl]-3-methoxy-isoxazole], the melting point was 118 °C.
In turn, `COc1cc(C(F)S(=O)(=O)C2=NOC(C)(C)C2)on1` (centres unmarked) [Compound No. 5.03, 5-[(5,5-dimethyl-4,5-dihydroisoxazole-3-sulfonyl)-fluoromethyl]-3-methoxy-isoxazole] showed a melting point of 99 °C. In addition, in series [2], the “herbicidal action … Amaranthus” value turned out to be 10; the “herbicidal action … Setaria” value is on record as 9; the “herbicidal action … Sida” value was 2.
`Cc1c(Br)noc1C(F)(F)S(=O)(=O)C1=NOC(C)(C)C1` [Compound No. 5.06, 3-bromo-5-[(5,5-dimethyl-4,5-dihydroisoxazole-3-sulfonyl)-difluoro-methyl]-4-methyl-isoxazole]: the melting point fell in the range of 70 to 75 °C.
